Measured values reported in patent US20240308996A1, “PYRIDOPYRIDINES AND DERIVATIVES THEREOF AS SELECTIVE KINASE INHIBITORS” (University of Sharjah, priority 2023, published 2024).

Experiments:
UACC-257 = test: NCI-60 cell line panel: UACC-257; assay type: cell-based; conditions: Melanoma; for IC50: Homo sapiens; for TGI: total growth inhibition
Experimental: (§1) It was carried out at the NCI, Bethesda, MD, USA, utilizing their standard protocol.

IGROV1 = test: NCI-60 cell line panel: IGROV1; assay type: cell-based; conditions: for IC50: Homo sapiens, IGROV-1, Ovarian Cancer; for TGI: Ovarian Cancer, total growth inhibition
Experimental: as §1

A549/ATCC = test: NCI-60 cell line panel: A549/ATCC; assay type: cell-based; conditions: Non-Small Cell Lung Cancer; for IC50: Homo sapiens; for TGI: total growth inhibition
Experimental: as §1

Flt4 = Flt4 (Homo sapiens, UniProt P35916); test: Kinase IC50, Flt4
Sequence of Flt4 (P35916 25-1363): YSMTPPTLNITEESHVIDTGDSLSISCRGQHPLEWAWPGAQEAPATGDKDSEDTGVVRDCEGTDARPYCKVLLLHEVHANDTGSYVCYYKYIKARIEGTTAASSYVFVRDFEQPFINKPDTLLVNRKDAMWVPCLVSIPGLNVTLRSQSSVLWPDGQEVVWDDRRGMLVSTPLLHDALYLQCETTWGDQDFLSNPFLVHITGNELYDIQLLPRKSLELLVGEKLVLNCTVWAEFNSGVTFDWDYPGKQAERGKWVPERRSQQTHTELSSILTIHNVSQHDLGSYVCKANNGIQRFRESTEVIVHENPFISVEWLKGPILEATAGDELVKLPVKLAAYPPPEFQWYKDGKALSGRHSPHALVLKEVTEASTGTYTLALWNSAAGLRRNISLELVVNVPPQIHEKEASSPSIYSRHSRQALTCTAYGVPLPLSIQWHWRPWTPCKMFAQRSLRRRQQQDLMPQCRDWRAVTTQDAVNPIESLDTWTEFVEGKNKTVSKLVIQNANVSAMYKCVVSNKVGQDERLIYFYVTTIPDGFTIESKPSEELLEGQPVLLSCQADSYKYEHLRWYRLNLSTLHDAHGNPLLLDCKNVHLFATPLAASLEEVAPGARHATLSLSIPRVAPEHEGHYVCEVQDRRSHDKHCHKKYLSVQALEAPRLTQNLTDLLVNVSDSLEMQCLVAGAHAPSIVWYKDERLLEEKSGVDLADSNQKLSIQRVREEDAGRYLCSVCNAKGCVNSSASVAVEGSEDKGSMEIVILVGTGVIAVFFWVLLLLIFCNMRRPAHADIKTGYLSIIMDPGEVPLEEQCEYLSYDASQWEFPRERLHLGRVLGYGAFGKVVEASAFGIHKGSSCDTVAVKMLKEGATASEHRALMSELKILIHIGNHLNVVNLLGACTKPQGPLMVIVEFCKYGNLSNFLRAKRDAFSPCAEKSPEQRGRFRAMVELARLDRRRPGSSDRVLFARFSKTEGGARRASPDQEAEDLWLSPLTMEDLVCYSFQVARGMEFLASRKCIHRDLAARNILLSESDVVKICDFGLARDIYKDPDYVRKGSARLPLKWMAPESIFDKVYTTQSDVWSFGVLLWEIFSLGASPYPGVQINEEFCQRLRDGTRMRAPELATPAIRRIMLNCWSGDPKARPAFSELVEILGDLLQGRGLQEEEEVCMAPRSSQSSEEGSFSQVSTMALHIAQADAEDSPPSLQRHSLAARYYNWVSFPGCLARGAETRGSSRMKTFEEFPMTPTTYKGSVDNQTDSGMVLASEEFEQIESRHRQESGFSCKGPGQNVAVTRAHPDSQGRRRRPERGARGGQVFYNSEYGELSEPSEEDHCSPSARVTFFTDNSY

FMS = FMS (Homo sapiens, UniProt P07333); test: Kinase IC50, FMS
Sequence of FMS (P07333 20-972): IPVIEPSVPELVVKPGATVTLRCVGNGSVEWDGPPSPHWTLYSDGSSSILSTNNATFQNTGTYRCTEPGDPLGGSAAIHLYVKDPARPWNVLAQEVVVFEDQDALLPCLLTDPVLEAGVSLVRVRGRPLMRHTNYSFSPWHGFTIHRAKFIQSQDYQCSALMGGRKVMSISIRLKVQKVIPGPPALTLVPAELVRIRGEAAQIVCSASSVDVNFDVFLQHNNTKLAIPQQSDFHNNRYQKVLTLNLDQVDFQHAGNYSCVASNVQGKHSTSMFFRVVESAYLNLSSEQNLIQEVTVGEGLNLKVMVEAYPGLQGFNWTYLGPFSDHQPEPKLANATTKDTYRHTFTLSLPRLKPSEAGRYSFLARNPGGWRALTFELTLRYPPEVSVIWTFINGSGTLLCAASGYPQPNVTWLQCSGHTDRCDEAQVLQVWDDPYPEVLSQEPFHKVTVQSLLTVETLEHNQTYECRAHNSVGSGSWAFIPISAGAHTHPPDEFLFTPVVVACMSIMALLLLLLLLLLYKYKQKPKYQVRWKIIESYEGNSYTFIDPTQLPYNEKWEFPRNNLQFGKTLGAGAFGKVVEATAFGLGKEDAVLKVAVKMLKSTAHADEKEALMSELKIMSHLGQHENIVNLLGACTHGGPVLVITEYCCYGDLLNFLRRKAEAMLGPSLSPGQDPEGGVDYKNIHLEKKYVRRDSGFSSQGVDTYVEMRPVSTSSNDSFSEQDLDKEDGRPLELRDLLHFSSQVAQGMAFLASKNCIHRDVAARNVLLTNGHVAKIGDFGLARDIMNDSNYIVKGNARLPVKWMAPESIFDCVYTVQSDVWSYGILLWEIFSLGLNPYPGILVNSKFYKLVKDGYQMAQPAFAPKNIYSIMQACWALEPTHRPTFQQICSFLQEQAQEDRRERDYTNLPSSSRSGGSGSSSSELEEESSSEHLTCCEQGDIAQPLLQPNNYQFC

Flt3 = Flt3 (Homo sapiens, UniProt P36888); test: Kinase IC50, Flt3
Sequence of Flt3 (P36888 27-993): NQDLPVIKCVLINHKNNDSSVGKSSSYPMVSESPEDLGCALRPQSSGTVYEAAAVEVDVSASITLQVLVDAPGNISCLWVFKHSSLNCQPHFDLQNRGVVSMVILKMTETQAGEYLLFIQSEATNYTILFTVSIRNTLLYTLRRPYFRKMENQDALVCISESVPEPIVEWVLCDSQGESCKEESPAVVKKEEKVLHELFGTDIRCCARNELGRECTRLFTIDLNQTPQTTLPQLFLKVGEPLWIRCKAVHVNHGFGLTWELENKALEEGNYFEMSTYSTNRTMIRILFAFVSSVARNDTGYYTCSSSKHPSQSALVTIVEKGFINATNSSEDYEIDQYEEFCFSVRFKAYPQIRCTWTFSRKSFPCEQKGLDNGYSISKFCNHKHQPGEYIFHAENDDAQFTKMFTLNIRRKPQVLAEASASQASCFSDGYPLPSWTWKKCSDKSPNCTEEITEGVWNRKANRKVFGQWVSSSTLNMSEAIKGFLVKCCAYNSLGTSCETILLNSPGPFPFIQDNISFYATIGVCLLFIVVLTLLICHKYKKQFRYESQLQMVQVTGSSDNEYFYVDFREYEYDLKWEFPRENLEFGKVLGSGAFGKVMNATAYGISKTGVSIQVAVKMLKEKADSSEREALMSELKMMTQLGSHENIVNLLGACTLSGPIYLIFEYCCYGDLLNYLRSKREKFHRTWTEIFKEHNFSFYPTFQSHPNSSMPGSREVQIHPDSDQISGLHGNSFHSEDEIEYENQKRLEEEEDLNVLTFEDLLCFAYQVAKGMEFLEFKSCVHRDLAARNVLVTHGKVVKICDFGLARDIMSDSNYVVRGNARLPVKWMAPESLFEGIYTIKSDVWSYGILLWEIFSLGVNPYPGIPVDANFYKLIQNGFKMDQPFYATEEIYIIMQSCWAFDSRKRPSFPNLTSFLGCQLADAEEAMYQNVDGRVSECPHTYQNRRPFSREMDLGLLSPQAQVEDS

PDGFRα = PDGFRα (Homo sapiens, UniProt P16234); test: Kinase IC50, PDGFRα
Sequence of PDGFRα (P16234 24-1089): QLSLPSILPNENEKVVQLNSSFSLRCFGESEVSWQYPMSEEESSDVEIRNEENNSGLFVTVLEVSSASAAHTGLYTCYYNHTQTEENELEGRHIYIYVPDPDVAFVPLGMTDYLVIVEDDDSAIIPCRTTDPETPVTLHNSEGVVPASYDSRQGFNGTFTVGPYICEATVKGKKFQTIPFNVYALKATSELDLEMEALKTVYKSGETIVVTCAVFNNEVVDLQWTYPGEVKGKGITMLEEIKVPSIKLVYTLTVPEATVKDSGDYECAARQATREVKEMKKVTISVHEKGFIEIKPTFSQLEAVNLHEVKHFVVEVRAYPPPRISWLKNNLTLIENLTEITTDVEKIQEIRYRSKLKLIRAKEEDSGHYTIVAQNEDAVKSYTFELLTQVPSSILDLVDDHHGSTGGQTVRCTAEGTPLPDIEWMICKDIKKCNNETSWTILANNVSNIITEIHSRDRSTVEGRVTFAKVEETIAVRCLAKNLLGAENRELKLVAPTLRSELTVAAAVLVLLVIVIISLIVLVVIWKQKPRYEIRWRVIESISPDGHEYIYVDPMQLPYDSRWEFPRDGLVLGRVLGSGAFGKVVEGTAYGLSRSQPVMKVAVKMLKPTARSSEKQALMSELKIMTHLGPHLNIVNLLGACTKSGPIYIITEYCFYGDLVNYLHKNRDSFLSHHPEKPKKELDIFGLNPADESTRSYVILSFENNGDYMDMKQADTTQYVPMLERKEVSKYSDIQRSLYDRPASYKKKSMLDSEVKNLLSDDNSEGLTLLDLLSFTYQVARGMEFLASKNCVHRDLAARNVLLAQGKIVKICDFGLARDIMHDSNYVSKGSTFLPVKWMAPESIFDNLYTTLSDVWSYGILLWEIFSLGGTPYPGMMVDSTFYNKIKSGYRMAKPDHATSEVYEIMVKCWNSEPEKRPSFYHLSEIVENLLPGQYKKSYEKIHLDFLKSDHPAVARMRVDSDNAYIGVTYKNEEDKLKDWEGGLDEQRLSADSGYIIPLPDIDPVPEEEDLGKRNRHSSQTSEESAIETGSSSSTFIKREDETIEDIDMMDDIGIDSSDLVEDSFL

TrkA = TrkA (Homo sapiens, UniProt P04629); test: Kinase IC50, TrkA
Sequence of TrkA (P04629 33-796): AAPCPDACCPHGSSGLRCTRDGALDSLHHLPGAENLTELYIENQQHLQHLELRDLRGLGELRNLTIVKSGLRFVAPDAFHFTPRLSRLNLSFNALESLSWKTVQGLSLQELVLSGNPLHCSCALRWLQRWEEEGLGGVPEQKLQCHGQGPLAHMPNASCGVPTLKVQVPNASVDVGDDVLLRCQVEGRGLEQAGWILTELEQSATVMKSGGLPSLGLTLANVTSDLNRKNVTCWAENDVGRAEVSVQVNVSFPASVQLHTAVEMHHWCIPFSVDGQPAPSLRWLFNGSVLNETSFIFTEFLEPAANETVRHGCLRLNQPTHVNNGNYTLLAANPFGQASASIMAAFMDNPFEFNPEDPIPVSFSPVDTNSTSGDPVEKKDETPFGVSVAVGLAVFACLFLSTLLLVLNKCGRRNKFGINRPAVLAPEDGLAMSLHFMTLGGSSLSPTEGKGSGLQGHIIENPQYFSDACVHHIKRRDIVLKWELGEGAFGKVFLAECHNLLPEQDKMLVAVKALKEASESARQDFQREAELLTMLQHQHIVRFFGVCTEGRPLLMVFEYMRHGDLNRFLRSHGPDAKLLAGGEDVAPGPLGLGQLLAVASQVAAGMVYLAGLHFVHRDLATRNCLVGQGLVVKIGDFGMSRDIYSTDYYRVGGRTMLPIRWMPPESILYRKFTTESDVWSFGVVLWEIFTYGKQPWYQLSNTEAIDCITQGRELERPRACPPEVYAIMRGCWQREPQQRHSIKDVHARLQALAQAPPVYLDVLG

SMILES | IC50 (UACC-257) [nM] | TGI (UACC-257) [nM] | IC50 (IGROV1) [nM] | TGI (IGROV1) [nM] | IC50 (A549/ATCC) [nM] | TGI (A549/ATCC) [nM] | IC50 (Flt4) [nM] | IC50 (FMS) [nM] | potency against FMS kinase compared with sorafenib (FMS) | potency and selectivity against FMS kinase (IC50 values) (FMS; against the most sensitive kinases) | IC50 (Flt3) [nM] | IC50 (PDGFRα) [nM] | IC50 (TrkA) [nM]
CCN1CCN(c2ccc(NC(=O)Nc3ccc(-c4cc(C(=O)NC(C)C)c5ncccc5n4)cc3)cc2C(F)(F)F)CC1 [Compound 13f, 2-(4-(3-(4-(4-Ethylpiperazin-1-yl)-3-(trifluoromethyl)phenyl)ureido)phenyl)-N-isopropyl-1,5-naphthyridine-4-carboxamide] | 3450 | 8110 | 1420 | 5110 | 1140 | 5770 |  |  |  |  |  |  | 
CNC(=O)c1cc(-c2ccc(NC(=O)Nc3ccc(N4CCN(C)CC4)c(C(F)(F)F)c3)cc2)nc2cccnc12 [Compound 13b, N-Methyl-2-(4-(3-(4-(4-methylpiperazin-1-yl)-3-(trifluoromethyl)phenyl)ureido)phenyl)-1,5-naphthyridine-4-carboxamide] | 15300 | 28800 | 17700 | 36600 | 10900 | 24300 | 366.3 ± 0.5 | 21.5 ± 0.2 | more potent than the known drug sorafenib | high potency and selectivity against FMS kinase | 362 ± 0.4 | 972.4 ± 1.3 | 
CCN1CCN(c2ccc(NC(=O)Nc3ccc(-c4cc(C(=O)NC)c5ncccc5n4)cc3)cc2C(F)(F)F)CC1 [Compound 13c, 2-(4-(3-(4-(4-Ethylpiperazin-1-yl)-3-(trifluoromethyl)phenyl)ureido)phenyl)-N-methyl-1,5-naphthyridine-4-carboxamide] | 3050 | 5990 | 3010 | 5610 | 470 | 1300 | 945.1 ± 0.5 | 73.9 ± 0.2 | more potent than the known drug sorafenib |  | 483.6 ± 0.7 | 992.3 ± 0.6 | 958
CC(C)NC(=O)c1cc(-c2ccc(NC(=O)Nc3ccc(N4CCN(C)CC4)c(C(F)(F)F)c3)cc2)nc2cccnc12 [Compound 13e, N-Isopropyl-2-(4-(3-(4-(4-methylpiperazin-1-yl)-3-(trifluoromethyl)phenyl)ureido)phenyl)-1,5-naphthyridine-4-carboxamide] | 690 | 1430 | 740 | 1390 | 730 | 1640 |  |  |  |  |  |  | 
